Drawing on the RepoRT retention time repository (doi:10.1038/sdata.2014.29), this text covers LC retention time for 70 compounds.

The nature of this data set: RP, Waters ACQUITY UPLC HSS T3, 150 × 2 mm, 1.7 µm, 30 °C, 0.4 mL/min, estimated dead time 0.75 min; A: water + 0.2% formic acid; B: 2% water + 98% acetonitrile + 0.2% formic acid; gradient (min/%B) 0/0 2.5/0 7.5/10 10/100 12/100 18/0 25/0. The conditions noted are these: stereoisomer not certain.

With `O[C@@H]1c2c(sc3ccccc23)C=C[C@@H]1O` (relative stereo) [cis-1,2-dihydroxy-1,2-dihydrodibenzothiophene], the LC retention time is 1.64 min.
The figure for `CC(C=CC1(O)C(C)=CC(=O)CC1(C)C)=CC(=O)O` (single isomer, unassigned; (+)) [(+)-abscisic acid] is 10.1 min.
Regarding `OCC1OC(OC2(COC3(CO)OC(CO)C(O)C3O)OC(CO)C(O)C2O)C(O)C(O)C1O` (stereo not given) [1-kestose], the LC retention time is 1.88 min.
As for `C[C@](O)(CO)[C@H](O)COP(=O)(O)O` [2-C-methyl-D-erythritol 4-(dihydrogen phosphate)], the LC retention time was 1.64 min.
In the case of `O=C(O)c1ccco1` [2-furoic acid], the LC retention time is 4.46 min.
Turning to `O=C(O)CCC(=O)C(=O)O` [2-oxoglutaric acid], the LC retention time was 3.04 min.
The figure for `O=C(COP(=O)(O)O)Cc1cnc[nH]1` [3-(imidazol-4-yl)-2-oxopropyl dihydrogen phosphate] is 2.09 min; for `N#CCC(N)C(=O)O` (stereo not given) [3-cyanoalanine] it is 1.51 min; for `O=C(O)/C=C/c1ccc(O[C@@H]2O[C@H](CO)[C@@H](O)[C@H](O)[C@H]2O)cc1` [4-O-beta-D-glucosyl-4-coumaric acid] it is 9.11 min.
`O=C(O)C=Cc1ccc(O)cc1` [4-coumaric acid]: the LC retention time was 8.99 min.
For `O=C(O)c1ccc(O)cc1` [4-hydroxybenzoic acid], the LC retention time was 9.88 min.
With `OCC=Cc1ccc(O)cc1` [4-hydroxycinnamyl alcohol], the LC retention time was 1.62 min.
Regarding `CC(C)CC(=O)C(=O)O` [4-methyl-2-oxopentanoic acid], the LC retention time was 9.46 min.
With `O=C1CC[C@@H](C(=O)O)N1` [5-oxo-L-proline] the figure was 4.72 min; with `O=C(O)[C@H](O)[C@@H](O)[C@H](O)[C@H](O)COP(=O)(O)O` [6-phospho-D-gluconic acid], 1.55 min.
The figure for `O=C(O)C(=O)[C@H](O)COP(=O)(O)O` [(R)-3-hydroxy-2-oxo-4-phosphonooxybutanoic acid] is 9.3 min; for `O=C(O)CCCCC1CCSS1` [(R)-lipoic acid] it is 2.28 min.
`CC(=O)OC(C)(C)C1CCC2(C)COC3(C)C=COC23C1` (stereo not given) [AC1L9CQ2]: the LC retention time is 11.6 min.
For the compound `O=C(O)C=Cc1ccc(O)c(OC2OC(CO)C(O)C(O)C2O)c1` (stereo not given) [Caffeic acid 3-glucoside], the LC retention time is 8.96 min.
With `O=C[C@H](O)[C@H](O)CO` [D-erythrose] the figure was 1.67 min; with `O=C(O)[C@H](O)[C@@H](O)[C@H](O)[C@H](O)CO` [D-gluconic acid], 1.61 min.
With `O=C1O[C@H](CO)[C@@H](O)[C@H](O)[C@H]1O` [D-glucono-1,5-lactone], the LC retention time was 2.02 min.
Turning to `O=C(O)[C@H](O)[C@@H](O)[C@H](O)CO` [D-xylonic acid], the LC retention time is 1.69 min.
Turning to `O=C(O)C1OC(O)C(O)C(O)C1O` (stereo not given) [Glucuronic Acid], the LC retention time was 1.61 min.
In the case of `C[C@H]([NH3+])C(=O)[O-]` [L-alanine], the LC retention time is 1.44 min.
Take `NC(=O)C[C@H](N)C(=O)O` [L-asparagine]: the LC retention time is 1.48 min.
For the compound `N[C@@H](CC(=O)O)C(=O)O` [L-aspartic acid], the LC retention time is 1.53 min.
With `CC[C@H](C)[C@H](N)C(=O)O` [L-isoleucine] the figure was 5.34 min.
Turning to `Nc1ncnc2c1ncn2[C@@H]1O[C@H](CSCC[C@H]([NH3+])C(=O)[O-])[C@@H](O)[C@H]1O` [S-adenosyl-L-homocysteine], the LC retention time is 1.92 min.
The figure for `Nc1ncnc2c1ncn2C1OC(CO)C(O)C1O` (stereo not given) [adenosine] is 6.01 min; for `NC(=O)NC1NC(=O)NC1=O` (stereo not given) [allantoin] it is 1.76 min.
Regarding `OCC1OC(OC2OC(CO)C(O)C(O)C2O)C(O)C(O)C1O` (stereo not drawn) [alpha,alpha-trehalose], the LC retention time was 1.58 min.
Consider `O=C(O)CCCCCCCC(=O)O` [azelaic acid], for which the LC retention time was 9.61 min.
Regarding `CC(=O)OC1CC(C)C(C=O)C2(O)C1C(C)(C)CC2(C)C=O` (stereo not given) [botrydial], the LC retention time is 13.5 min.
With `CC1(C)SC2C(NC(=O)C(C(=O)O)c3ccccc3)C(=O)N2C1C(=O)O` (stereo not given) [carbenicillin] the figure was 1.73 min; with `O=C(C=Cc1ccc(O)c(O)c1)OC1CC(O)(C(=O)O)CC(O)C1O` (stereo not given) [chlorogenic acid], 9.09 min; with `C=CC=C(O)C(=O)O` [cis-2-hydroxypenta-2,4-dienoic acid], 1.68 min.
Turning to `O=C(O)C=C(CC(=O)O)C(=O)O` [cis-aconitic acid], the LC retention time is 4.46 min.
As for `O=C(O)C1OC(OC2C(C(=O)O)OC(O)C(O)C2O)C(O)C(O)C1O` (stereo not given) [digalacturonic acid], the LC retention time was 1.58 min.
Consider `CC(C(=O)[O-])=C(C)C(=O)[O-]` [dimethylmaleate(2-)], for which the LC retention time is 1.67 min.
In the case of `O=P([O-])([O-])OP(=O)([O-])[O-]` [diphosphate(4-)], the LC retention time is 1.47 min.
For the compound `CC(=O)NC=CSC1=C(C(=O)O)N2C(=O)C(C(C)OS(=O)(=O)O)C2C1` (stereo not given) [epithienamycin E], the LC retention time was 4.43 min.
For `O=C(O)C=CC(=O)O` [fumaric acid], the LC retention time was 2.46 min.
For the compound `O=C([O-])C(O)C(O)C(O)C(O)C(=O)[O-]` (stereo not given) [glucarate(1-)], the LC retention time was 1.57 min.
On to `NC(CCC(=O)O)C(=O)O` (stereo not given) [glutamic acid], for which the LC retention time was 1.62 min.
Consider `O=C(O)C(O)CO` (stereo not given) [glyceric acid], for which the LC retention time was 1.92 min.
As for `O=P(O)(O)OC(CO)CO` [glycerol 2-phosphate], the LC retention time is 1.53 min.
`O=C(CO)COP(=O)(O)O` [glycerone phosphate]: the LC retention time is 9.3 min.
Take `O=C(CO)CO` [glycerone]: the LC retention time was 3.02 min.
On to `C[N+](C)(C)CC(=O)[O-]` [glycine betaine], for which the LC retention time is 1.57 min.
The figure for `Nc1nc2c(ncn2C2OC(CO)C(O)C2O)c(=O)[nH]1` (stereo not given) [guanosine] is 6.32 min.
As to `NC(Cc1cnc[nH]1)C(=O)O` (stereo not given) [histidine], the LC retention time was 1.43 min.
Turning to `O=c1[nH]cnc2nc[nH]c12` [hypoxanthine], the LC retention time is 1.75 min.
The figure for `COc1c2ccoc2c(OC)c2oc(=O)ccc12` [isopimpinellin] is 1.66 min.
Take `CC1=CC2=CC(C)CC23OC(=C(C)C3=O)CC(C)(C)C=CC1=O` (stereo not given) [jatrophone]: the LC retention time is 10.2 min.
As to `O=C(O)CC(O)C(=O)O` (stereo not given) [malic acid], the LC retention time is 2.44 min.
`O=C(O)CC(=O)O` [malonic acid]: the LC retention time was 2.64 min.
For the compound `CS(=O)(=O)CCC(N)C(=O)O` (stereo not given) [methionine sulfone], the LC retention time was 1.9 min.
With `COC(=O)[C@@H](N)Cc1ccc(O)cc1` [methyl L-tyrosinate] the figure was 10.7 min; with `C#CC1(OC(C)=O)CCC2C3CCC4=CC(=O)CCC4C3CCC21C` (stereo not given) [norethindrone acetate], 10.5 min; with `CCCCCCCCCCCCOCCOCCOCCOCCOCCO` [pentaethylene glycol monododecyl ether], 11.8 min.
With `O=C(O)C1CCCCN1` (stereo not given) [pipecolic acid], the LC retention time was 2.79 min.
The figure for `CC(=O)C(=O)O` [pyruvic acid] is 4.6 min; for `O=C(O)CCCCCCC(=O)O` [suberic acid] it is 9.43 min; for `O=C(O)CCC(=O)O` [succinic acid] it is 5.35 min.
`O=P(O)(O)OCC1OC(CO)(OC2OC(CO)C(O)C(O)C2O)C(O)C1O` (stereo not given) [sucrose 6(F)-phosphate]: the LC retention time is 1.81 min.
Regarding `C=CC#CC#CC1=CC=C(C#CC)SS1` [thiarubrine A], the LC retention time is 1.97 min.
With `NC(Cc1c[nH]c2ccccc12)C(=O)O` (stereo not given) [tryptophan] the figure was 8.87 min.
Consider `O=c1ccn(C2OC(CO)C(O)C2O)c(=O)[nH]1` (stereo not given) [uridine], for which the LC retention time was 5.79 min.
Turning to `O=C(O)c1nc2[nH]c(=O)[nH]c(=O)c2[nH]1` [xanthine-8-carboxylic acid], the LC retention time was 4.71 min.
